Data reported in patent publication US11591300B2, “Oxazole containing compounds as activators of IDO1 and AhR” (The Brigham and Women's Hospital, Inc., priority 2017, dated 2023).
Entries after “also recorded” stand apart in the source; their conditions may differ. Like-named read-outs stand apart in the source and are kept apart here.

How the values were obtained:
[1] = test system: MODE-K cells; test: CD1d-restricted IL-10 production in MODE-K:NKT cell hybridoma co-culture; type: cell-based, mouse; details: for compound induced inhibition of CD1d-restricted IL-10 production when AhR expression is silenced / decrease of IL-10 production when AhR was silenced: AhR siRNA; for compound induced inhibition of CD1d-restricted IL-10 production when AhR expression is silenced: IEC:iNKT cell co-cultures; for epithelial derived IL-10: no exogenous α-GC; for IL-10 production / decrease of IL-10 production when AhR was silenced: tryptophan-deficient conditions supplemented with kyneurenic acid
[2] = test system: MODE-K cells; test: Surface and intracellular CD1d protein expression in MODE-K cells (flow cytometry); type: cell-based, mouse; details: IECs stimulated with compound
Description: (§1) In light of the decreased MTP expression observed in oxazolone treated IECs (FIG. 1B) and given that MTP loss alters the ability of CD1d to acquire exogenous antigens, such as α-GC, and CD1d elicited IL-10 responses by epithelial cells (Dougan et al. 2005, Dougan et al. 2007, Zeissig et al 2017, Sagiv et al. 2007, Brozovic et al. 2004, Olszak et al. 2014), it was investigated whether CD1d expression and lipid loading on oxazolone conditioned IECs.

[3] = target: recombinant IDO1 (Homo sapiens, UniProt P14902); test: Recombinant IDO1 conversion of L-tryptophan to formyl-kyneurenine; type: biochemical; details: compared to control (TMC) or vehicle
Sequence of recombinant IDO1 (P14902 whole entry, species assumed): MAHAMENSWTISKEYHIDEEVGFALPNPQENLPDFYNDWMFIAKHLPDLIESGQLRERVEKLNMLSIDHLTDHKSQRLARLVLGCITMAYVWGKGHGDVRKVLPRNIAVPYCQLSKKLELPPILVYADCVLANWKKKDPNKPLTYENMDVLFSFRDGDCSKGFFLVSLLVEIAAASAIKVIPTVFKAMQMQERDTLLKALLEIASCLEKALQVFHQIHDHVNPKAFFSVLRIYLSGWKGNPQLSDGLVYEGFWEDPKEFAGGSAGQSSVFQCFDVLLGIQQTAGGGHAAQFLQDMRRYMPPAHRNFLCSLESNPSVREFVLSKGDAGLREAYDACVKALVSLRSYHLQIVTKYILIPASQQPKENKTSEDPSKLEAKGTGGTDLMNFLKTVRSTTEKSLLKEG

[4] = test system: primary hepatocytes; test: IL-10 production from primary hepatocytes co-cultured with 24.7 iNKT hybridoma; details: response to iNKT cells in the presence of α-GC
[5] = test system: C57Bl/6 mice; test: Intra-rectal administration, colonic inflammation in vivo; parameters: species or system mouse; details: for IL-10 production in colonic explants: AhrΔIEC compared to wildtype controls, after intra-rectal challenge; for host protection, disease manifestations / weight loss: AhrΔIEC relative to Ahrfl/fl mice
Protocol: It was tested whether a dietary sourced minimal oxazole structure was sufficient to induce intestinal inflammation in vivo. […] To confirm this, the ability of oxazolone skin pre-sensitization to affect the responses to rectal challenge with TMO and vice-versa (FIG. 9D).
Next, it was tested whether B17 microcin derivatives could induce intestinal inflammation in vivo. Therefore, adequate quantities of a minimal B17 derivative (termed frag-oz, FIG. 2D) were synthesized to perform in vivo experiments and challenged animals via intra-rectal administration. […] These studies identify an oxazole containing microbial mimic that promotes CD1d-dependent intestinal inflammation independent of its classical anti-microbial activity.
These studies reveal a novel role for epithelial derived AhR signals in promoting mucosal inflammation when exposed to OxC.

[6] = test system: bone marrow-derived dendritic cells; test: IFN-γ production in bone marrow-derived dendritic cell : 24.7 iNKT hybridoma co-culture; type: cell-based; details: bone marrow-derived dendritic cells with 24.7 iNKT hybridoma and α-GC
[7] = test system: MODE-K cells; test: Relative transcript abundance of target genes in MODE-K cells conditioned with compounds
Description: 4-ethoxymethylene-2-phenyl-2-oxazol-5-one, (referred to as oxazolone, FIG. 1A) has been widely utilized in models of contact hypersensitivity and when applied to the mucosa has been proposed to cause colitis through its properties as a hapten (Gorbachev and Fairchild 2001). However to date there is limited evidence for hapten-specific antibody production or responses following topical oxazolone sensitization or hapten modified autologous proteins or luminal antigens identified at mucosal sites (Singleton et al. 2016, Yanaba et al. 2008, Wirtz et al. 2007). […] It was then determined whether oxazolone could affect the expression of these transcripts in the intestinal epithelium in a cell intrinsic manner by directly stimulating an immortalized intestinal epithelial cell line (IEC) derived from mouse small intestine, MODE-K, with oxazolone.
To test this, a systematic in vitro system was devised to assess transcriptional and CD1d-restricted responses in IECs in response to stimulation with dietary OxC structures, including 2,4,5-trimethyl-2,5-dihydro-1,3-oxazole (referred to as TMO, FIG. 1A) found in coffee, peanuts, meats and utilized as a food additive, which lacks the 2-phenyl ring, 5-ketone, and 4-ethoxymethylene present in oxazolone (Vitzthum et al. 1975, Stoffesima et al. 1968, Lee et al. 1981, Chang et al. 1968, Ho and Hartman 1968).

[8] = test system: epithelial enriched colon fractions; details: after intra-rectal oxazolone challenge; Olszak et al. 2014; cited from earlier work
[9] = target: T1, aryl hydrocarbon receptor (AhR) (Mus musculus, UniProt P30561); test: AhR firefly luciferase reporter in IECs; type: cell-based; details: compared to vehicle or 1,2,4-trimethylcyclopentane
T1 construct: IECs were transfected with an AhR firefly luciferase reporter; endogenous in cells; host or cells: MODE-K (mouse intestinal epithelial cell line)
T1 sequence (P30561 10-848): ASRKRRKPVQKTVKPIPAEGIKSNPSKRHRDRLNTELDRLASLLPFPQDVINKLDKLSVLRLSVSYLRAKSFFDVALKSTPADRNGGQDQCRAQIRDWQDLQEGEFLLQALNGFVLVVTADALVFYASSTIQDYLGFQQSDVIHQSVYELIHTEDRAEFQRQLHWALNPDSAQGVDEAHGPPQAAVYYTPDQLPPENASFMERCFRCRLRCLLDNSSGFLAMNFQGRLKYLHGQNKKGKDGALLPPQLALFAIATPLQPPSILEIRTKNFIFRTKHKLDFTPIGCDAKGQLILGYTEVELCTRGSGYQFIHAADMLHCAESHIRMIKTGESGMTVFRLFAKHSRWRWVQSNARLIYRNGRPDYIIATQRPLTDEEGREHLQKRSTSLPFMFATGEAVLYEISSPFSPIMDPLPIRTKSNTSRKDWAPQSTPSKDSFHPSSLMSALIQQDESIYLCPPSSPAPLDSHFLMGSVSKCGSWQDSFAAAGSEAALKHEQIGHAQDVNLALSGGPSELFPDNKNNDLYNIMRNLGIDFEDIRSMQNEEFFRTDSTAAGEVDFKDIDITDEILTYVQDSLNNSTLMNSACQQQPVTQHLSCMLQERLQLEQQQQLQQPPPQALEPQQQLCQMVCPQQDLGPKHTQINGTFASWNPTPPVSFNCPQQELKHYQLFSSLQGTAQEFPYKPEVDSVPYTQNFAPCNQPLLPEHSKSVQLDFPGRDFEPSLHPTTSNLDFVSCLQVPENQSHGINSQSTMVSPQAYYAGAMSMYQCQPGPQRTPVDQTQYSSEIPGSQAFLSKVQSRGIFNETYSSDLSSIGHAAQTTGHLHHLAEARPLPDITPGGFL

[10] = test system: C57Bl/6 mice; details: germ free animals; Olszak et al. 2012; cited from earlier work
[11] = test system: MODE-K cells; test: Surface CD1d loaded with α-GC (L363 antibody staining) in MODE-K cells; type: cell-based, mouse; details: for compound induced reduction of cell surface CD1d lipid antigen loading when AhR expression is silenced: AhR siRNA
Description: as §1

[12] = test system: IECs; test: LC-MS of deuterated L-trp (D5-Trp) metabolites in IEC lysates; type: cell-based; details: within 6 hours of exposure
Protocol: IDO1 is a rate-limiting enzyme involved in tryptophan catabolism that generates formyl-kyneurenine which can be further metabolized into a variety of AhR agonists (Higuchi and Hayaishi Arch Biochem Biophys 1967, Nguyen and Bradfield 2008, Zelante et al. 2014). […] To specifically identify these tryptophan derived products, IECs were cultured with deuterated L-trp (D5-Trp) and performed high performance liquid chromatography mass spectrometry (LC-MS) on lysates stimulated with oxazolone, TMO, frag-oz or TMC control (FIG. 5C). […] Taken together these latter studies are consistent with a model in which exposure of IECs to oxazole containing compounds leads to the activation of IDO1 and generation of tryptophan-derived metabolites that induce the AhR pathway to downregulate CD1d-restricted responses associated with the production of IL-10 (FIG. 6).

[13] = target: DNA gyrase (Escherichia coli, UniProt P0AES4+P0AES6); details: in vitro; literature (Collin et al. 2013; Yorgey et al. 1994, Li et al. 1996); cited from earlier work
Sequence of DNA gyrase (P0AES4 whole entry, one chain of several): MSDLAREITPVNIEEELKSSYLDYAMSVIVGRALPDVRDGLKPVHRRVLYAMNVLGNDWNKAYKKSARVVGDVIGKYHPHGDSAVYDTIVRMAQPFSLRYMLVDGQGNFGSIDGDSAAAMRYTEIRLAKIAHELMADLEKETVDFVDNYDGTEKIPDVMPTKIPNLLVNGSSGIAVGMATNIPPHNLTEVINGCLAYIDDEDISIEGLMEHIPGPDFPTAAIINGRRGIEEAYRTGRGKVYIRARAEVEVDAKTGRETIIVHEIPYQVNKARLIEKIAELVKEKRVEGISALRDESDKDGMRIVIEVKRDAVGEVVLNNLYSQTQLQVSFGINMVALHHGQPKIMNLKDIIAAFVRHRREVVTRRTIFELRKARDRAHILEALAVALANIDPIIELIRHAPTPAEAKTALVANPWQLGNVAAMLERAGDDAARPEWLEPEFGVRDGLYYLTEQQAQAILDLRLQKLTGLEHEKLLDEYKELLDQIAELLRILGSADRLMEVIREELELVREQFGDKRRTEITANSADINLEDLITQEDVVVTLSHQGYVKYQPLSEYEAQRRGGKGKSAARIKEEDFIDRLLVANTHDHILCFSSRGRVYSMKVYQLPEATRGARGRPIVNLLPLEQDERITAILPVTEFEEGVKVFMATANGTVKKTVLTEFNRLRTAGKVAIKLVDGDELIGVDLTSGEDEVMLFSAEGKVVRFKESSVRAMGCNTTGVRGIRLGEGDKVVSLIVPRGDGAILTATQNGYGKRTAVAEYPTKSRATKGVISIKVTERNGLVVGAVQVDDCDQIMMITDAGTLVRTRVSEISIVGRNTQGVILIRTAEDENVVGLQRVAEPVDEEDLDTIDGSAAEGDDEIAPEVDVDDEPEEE

[14] = target: T2, human IDO1(hIDO1) (Homo sapiens, UniProt P14902); test: In vitro screening assay for IDO1 enhancers; type: biochemical
T2 construct: made in house
T2 sequence (P14902 whole entry): as the sequence (P14902 whole entry, species assumed) above
Protocol: An in vitro screen for IDO1 enhancers was developed based on the following categories: Synthetic, dietary, and microbial compounds with structural similarity to oxazole template.
SDS-PAGE gel under reducing conditions showing that hIDO1 was purified to >95% purity after HiTrap HP chelating column.
HiPrep 16/60 Sephacryl S-200 HR column (GE Healthcare Life Sciences) size-exclusion chromatography in a buffer containing 10 mM HEPES buffer, 150 mM NaCl pH 7.0 of hIDO1 showing single peak and peak maximum of purified protein at 126.2 minutes.
Sizing fractions a3-a11 were checked for Heme absorbance at 402 and 280 nm. Fractions showing >2.0 Heme ratio were pooled and concentrated, and final 1.5 mg/ml concentrated protein was used for final bound heme estimation. A ratio of 2.22 at 402/280 nm confirmed heme binding to purified recombinant hIDO1 protein.

[15] = IECs cultured in tryptophan-deficient media
[16] = tryptophan-deficient media supplemented with exogenous L-tryptophan
[17] = MODE-K cells conditioned with compound, normalized to β-actin
[18] = IEC enriched colonic fractions after intra-rectal administration
[19] = intra-rectal administration, wildtype

CCO/C=C1\N=C(c2ccccc2)OC1=O [oxazolone, 4-ethoxymethylene-2-phenyl-2-oxazolin-5-one]
compound induced inhibition of CD1d-restricted IL-10 production when AhR expression is silenced [1]: reversed
CD1d-restricted IL-10 production [1, 15]: no longer attenuated
CD1d-restricted IL-10 production ([1]; MODE-K pre-conditioned with compound, loaded with α-GC, co-culture with 24.7 iNKT hybridoma): attenuated IL-10 production; also recorded: limited
epithelial derived IL-10 ([1]; co-culture with autoreactive iNKT cell hybridoma (24.8)): suppressed
epithelial derived IL-10 ([1]; co-culture with autoreactive non-invariant dNKT cell hybridoma (14S.6)): suppressed
IL-10 production [1]: decreased IL-10 production
decrease of IL-10 production when AhR was silenced [1]: reduced when AhR was silenced
CD1d-restricted IL-10 production [1, 16]: attenuation of CD1d-restricted IL-10 production
CD1d protein expression or distribution between intracellular and cell surface pools [2]: did not display altered CD1d protein expression or distribution
ability of IDO1 to convert tryptophan to formyl-kyneurenine [3]: enhanced
compound induced inhibition of IL-10 production in hepatocytes from Ahr−/− mice [4]: resistance
IL-10 production in colonic explants [5]: elevated IL-10 production
host protection, disease manifestations ([5]; intra-rectal challenge): conferred host protection
weight loss ([5]; intra-rectal challenge): diminished weight loss
effect of skin pre-sensitization with the other compound (oxazolone or TMO) on rectal responses ([5]; topical sensitization followed by intra-rectal challenge): did not affect
IFN-γ production [6]: not affected
Ido1 transcripts [7, 17]: induction; also recorded: induced expression of these genes in vitro and in vivo
Mttp transcripts [7, 17]: down-regulation
Ido1 transcripts [8]: increased transcripts
Mttp transcripts [8]: decreased transcripts
cyp1a1 transcripts [8]: increased transcripts
AhR transcriptional activity [9]: induced robust AhR transcriptional activity
inflammation in animals under GF conditions [10]: induce inflammation
compound induced reduction of cell surface CD1d lipid antigen loading when AhR expression is silenced [11]: reversed
loading of α-GC on CD1d at the cell surface (L363 staining) ([11]; MODE-K cells conditioned with compound): decreased loading of α-GC on CD1d at the cell surface; also recorded: decreased cell surface staining
metabolite that D5-Trp was further metabolized to upon stimulation [12]: kyneurenic acid

CC(=O)NCc1nc(C(N)=O)co1 [frag-oz]
anti-gyrase activity [13]: no anti-gyrase activity
compound induced inhibition of CD1d-restricted IL-10 production when AhR expression is silenced [1]: reversed
CD1d-restricted IL-10 production [1, 15]: no longer attenuated
IL-10 production [1]: decreased IL-10 production
decrease of IL-10 production when AhR was silenced [1]: reduced when AhR was silenced
CD1d-restricted IL-10 production [1, 16]: attenuation of CD1d-restricted IL-10 production
ability of IDO1 to convert tryptophan to formyl-kyneurenine [3]: enhanced
compound induced inhibition of IL-10 production in hepatocytes from Ahr−/− mice [4]: resistance
IL-10 production in colonic explants [5]: elevated IL-10 production
host protection, disease manifestations ([5]; intra-rectal challenge): conferred host protection
weight loss ([5]; intra-rectal challenge): diminished weight loss
Cyp1a1 transcripts in IEC in vivo [5, 18]: induction of Cyp1a1
Mttp transcripts in IEC in vivo [5, 18]: Decreased Mttp levels
inflammation in animals under GF conditions ([5]; germ free animals): induce inflammation
weight loss in GF animals compared to SPF animals ([5]; germ free vs SPF, intra-rectal challenge): increased weight loss
histopathology in GF animals ([5]; germ free, intra-rectal challenge): severe histopathology
Th1 and Th2 cytokines (IL-13, IFN-γ) from colon explants [5, 19]: induction of both Th1 and 2 cytokines
histological pathology of the colon [5, 19]: CD1d-dependent pathology was observed
Cyp1a1 transcripts [7]: induced expression of these genes in vitro and in vivo
Ido1 transcripts [7, 17]: induced expression of these genes in vitro and in vivo
IDO1 enzymatic activity [14]: IDO1 activators
compound induced reduction of cell surface CD1d lipid antigen loading when AhR expression is silenced [11]: reversed
metabolite that D5-Trp was further metabolized to upon stimulation [12]: xanthurenic acid
